Test results taken from PubChem BioAssay (NCI).
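The compound was tested at five concentrations on cells cultured in 96-well plates, with a 48-hour exposure period. At the GI50, growth is halved. The concentration for full growth arrest is given as TGI.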

Columns and labels:
Assay in all cases: DTP human tumour cell line panel, 48 h
[1] = test system: HOP-92 NSCLC
[2] = test system: HCC-2998 colon
[3] = test system: SF-268 CNS
[4] = test system: A498 renal
[5] = test system: MOLT-4 leukemia
[6] = test system: OVCAR-3 ovarian
[7] = test system: OVCAR-4 ovarian
[8] = test system: IGROV1 ovarian
[9] = test system: DU-145 prostate
[10] = test system: PC-3 prostate

Compound | TGI [1] | TGI [2] | TGI [3] | TGI [4] | TGI [5] | TGI [6] | TGI [7] | TGI [8] | TGI [9] | TGI [10] | GI50 [1] | GI50 [2] | GI50 [4] | GI50 [5] | GI50 [6] | GI50 [7] | GI50 [8] | GI50 [9] | GI50 [10]
C=C1CCN2CC[C@@H](OC(=O)/C(C)=C\C)[C@@H]12 | > 100 µM | > 100 µM | > 100 µM | > 100 µM | > 100 µM | > 100 µM | > 100 µM | > 100 µM | > 100 µM | > 100 µM | – | – | – | – | – | – | – | – | –
O=C1c2cc3c(cc2-c2c1c1ccc(F)cc1c(=O)n2C[C@H](O)[C@@H](O)[C@H](O)CO)OCO3 | 0.69 µM | 0.38 µM | – | 0.262 µM | 0.426 µM | 0.476 µM | 0.874 µM | > 100 µM | 1.99 µM | > 100 µM | 0.18 µM | 0.14 µM | 0.12 µM | 0.0334 µM | 0.0989 µM | 0.185 µM | 0.302 µM | 0.0513 µM | 0.205 µM
COC(=O)C1=C(C(=O)OC)SC(=C2SCSC3=C2SC(C(=O)OC)=C(C(=O)OC)C32SC3=C(CCCC3)S2)S1 | > 100 µM | > 100 µM | > 100 µM | > 100 µM | > 100 µM | > 100 µM | > 100 µM | > 100 µM | > 100 µM | > 100 µM | – | – | – | – | – | – | – | – | –
COc1cc(S(=O)(=O)Nc2nc(-c3ccc(N4C(=O)C(CC(=O)O)SC4c4cccs4)cc3)cs2)ccc1Cl (configuration not stated) | 89.5 µM | > 100 µM | 50.9 µM | > 100 µM | 64.6 µM | > 100 µM | 66.4 µM | 66 µM | > 100 µM | > 100 µM | – | – | – | – | – | – | – | – | –
O=C(Cc1ccc(O)c(O)c1)NCc1c[nH]c2ccccc12 | > 100 µM | > 100 µM | > 100 µM | > 100 µM | > 100 µM | > 100 µM | > 100 µM | – | > 100 µM | > 100 µM | – | – | – | – | – | – | – | – | –
C/C(=C\CBr)CCC(Br)C(C)(C)Br (configuration not stated) | > 100 µM | > 100 µM | > 100 µM | > 100 µM | > 100 µM | > 100 µM | > 100 µM | > 100 µM | > 100 µM | > 100 µM | – | – | – | – | – | – | – | – | –
O=C1CCCCC1CN1CCCCC1 (configuration not stated) | > 100 µM | > 100 µM | > 100 µM | > 100 µM | > 100 µM | > 100 µM | > 100 µM | > 100 µM | > 100 µM | > 100 µM | – | – | – | – | – | – | – | – | –
COC(=O)c1c(C)nc2c1cc(O)c1[nH]c(C)c(C)nc12 | > 100 µM | > 100 µM | > 100 µM | > 100 µM | > 100 µM | > 100 µM | > 100 µM | > 100 µM | > 100 µM | > 100 µM | – | – | – | – | – | – | – | – | –
O=C(c1ccccn1)C1(N2CCCCC2)CCCCC1 | 64.9 µM | > 100 µM | 64.3 µM | > 100 µM | > 100 µM | > 100 µM | > 100 µM | > 100 µM | > 100 µM | > 100 µM | – | – | – | – | – | – | – | – | –
CCOC(=O)Nc1sc2c(c1C#N)CCCC2 | > 100 µM | > 100 µM | > 100 µM | > 100 µM | > 100 µM | > 100 µM | > 100 µM | > 100 µM | > 100 µM | > 100 µM | – | – | – | – | – | – | – | – | –
